Data taken from patent US6410533B1, “Antibacterial compounds” (Genzyme Corporation, priority 2000, dated 2002).
In brackets after ≈: the same amount, converted by molar mass. Read-outs that look alike come from different tables or passages of the source.

Assays:
[1] = system: Staphylococcus aureus bacteria (ATCC 9604 SV); assay: Minimal inhibitory concentration (MIC), broth microdilution; type: cell-based; details: 24 h at 37° C.
Description: Minimal inhibitory concentrations (MICs) for Staphylococcus aureus bacteria (ATCC 9604 SV) were determined by broth microdilution methodology following National Committee for Clinical Laboratory Standards. In the MIC determinations, the compounds were incorporated into Mueller-Hinton broth (Becton Dickinson Microbiology systems, Cockeyville, Md.) at a series of concentrations. After the test organism was grown overnight in TB broth, the broths were adjusted to the turbidity equivalent to 0.05 McFarland standard. The suspensions were diluted twenty-fold into the broth containing the compounds. […] In the IC50 determination, the method was modified to allow the rapid growth of the organisms. The inoculum suspensions were adjusted to 0.1 McFarland standard and then diluted two-fold into the wells containing TB broth and the compounds. After three to five hours incubation at 37° C., the turbidity was measured at 550 nm and inhibitory activity was defined as the concentration of antimicrobial agent that inhibits 50% growth of the organism in the microdilution wells.

[2] = system: methicillin-resistant Staphylococcus aureus (ATCC 33591); assay: In vivo mouse intraperitoneal infection, mortality and % survivors over 7 days; details: 1 and 5 h post inoculation, MRSA ATCC 33591 i.p., ICR mice
Description: Ten male ICR mice weighing 20 grams were inoculated intraperitoneally with an LD90-100 dose (2-3×10^7 CFU/mouse) of methicillin-resistant Staphylococcus aureus (ATCC 33591) in brain-heart infusion broth containing 5% mucin. Compounds were suspended in a vehicle containing 1% cremophore EL (Sigma) in normal saline and were administered subcutaneously in a volume of 0.4 ml per mouse either 1 hour following bacterial inoculation or 1 and 5 hours post inoculation. Animals receiving two doses of drug were injected subcutaneously in the hindquarter one hour post-innoculation and in the neck area, 5 hours post-innoculation. Deaths occurring during the subsequent 7 days are recorded. Mortality and % survivor endpoints are calculated.

[3] = Staphylococcus aureus ATCC 9604 SV
[4] = ATCC9604, Staphylococcus aureus ATCC 9604 SV, read-out: MIC

Structure (SMILES) | MIC [1, 3] [µg/mL] | In Vivo, double dose (% of mice rescued) ([2]; 2 × 2 mg/kg s.c.) [% @ 2 × 2 mg/kg] | In Vivo, double dose (% of mice rescued) ([2]; 2 × 20 mg/kg s.c.) [% @ 2 × 20 mg/kg] | MIC [1, 4] [µg/mL]
O=C1C(=Cc2ccncc2)C(c2ccccc2)=NN1c1cc(Cl)cc(Cl)c1 [Compound 19] | 1.15 (≈ 2.92 µM) | 0 | 25 | 
O=C1CC(c2cccc(F)c2)=NN1c1cc(Cl)cc(Cl)c1 [Compound 15] | 0.485 (≈ 1.5 µM) | 0 | 0 | 
CCC1=NN(c2cc(Cl)cc(Cl)c2)C(=O)C1=C1C(=O)Nc2ccccc21 [Compound 56] | 1.50 (≈ 3.88 µM) | 0 | 0 | 
CC(C)(C)c1csc(NC(=O)NCc2cccc(Cl)c2)n1 [Compound 172] | 8.10 (≈ 25 µM) | 12.5 | 25 | 
CN1CCC(=C2C(=O)N(c3cc(Cl)cc(Cl)c3)N=C2c2ccccc2)CC1 [Compound 31, 2-(3,5-Dichloro-phenyl)-4-(1-methyl-piperidin-4-ylidene)-5-phenyl-2,4-dihydropyrazol-3-one] |  | 0 | 0 | 5 (≈ 12.5 µM)
O=C(NCc1cccc(Cl)c1)Nc1nc(-c2ccc(C(F)(F)F)cc2)cs1 [Compound 176] | 5.15 (≈ 12.5 µM) |  |  | 
CCOC(=O)N1CCC(=C2C(=O)N(c3cc(Cl)cc(Cl)c3)N=C2c2ccccc2)CC1 [Compound 41] | 12.5 (≈ 27.3 µM) |  |  | 
O=C(c1ccccn1)C1C(=O)N(c2cc(Cl)cc(Cl)c2)N=C1c1ccccc1 (stereo not drawn) [Compound 50, 2-(3,5-Dichloro-phenyl)-5-phenyl-4-(pyridine-2-carbonyl)-2,4-dihydro-pyrazol-3-one] |  | 0 | 0 | 10.3 (≈ 25.1 µM)
COc1ccc(C(=O)C2C(=O)N(c3cc(Cl)cc(Cl)c3)N=C2c2ccccc2)cc1 (stereo not drawn) [Compound 49] | 10.0 (≈ 22.8 µM) | 0 | 25 | 
O=C1CC(c2ccccn2)=NN1c1cc(Cl)cc(Cl)c1 [Compound 48] | >7.65 |  |  | 
CC1(C)C(=O)N(c2cc(Cl)cc(Cl)c2)N=C1c1ccccc1 [Compound 4] | >8.33 |  |  | 
CC1=NN(c2cc(Cl)cc(Cl)c2)C(=O)C1Cc1ccccc1 (stereo not drawn) [Compound 21] | 8.33 (≈ 25 µM) |  |  | 
O=C1C2CCCC2=NN1c1cc(Cl)cc(Cl)c1 (stereo not drawn) [Compound 12] | >6.73 |  |  | 
Cn1cc(C=C2C(=O)N(c3cc(Cl)cc(Cl)c3)N=C2c2ccccc2)c2ccccc21 [Compound 43] | 0.400 (≈ 0.896 µM) |  |  | 
O=C1CC(C(F)(F)F)=NN1c1cc(Cl)cc(Cl)c1 [Compound 14] | 3.56 (≈ 12 µM) |  |  | 
CN(C)CCCOc1ccc(C=C2C(=O)N(c3cc(Cl)cc(Cl)c3)N=C2c2ccccc2)cc1 [Compound 28] | >12.5 |  |  | 
CCOC(=O)C1=NN(c2cc(Cl)cc(Cl)c2)C(=O)C1=CC1C(=O)Nc2ccccc21 (stereo not drawn) [Compound 62] | 12.5 (≈ 28.1 µM) |  |  | 
CC1=NN(c2cc(Cl)cc(Cl)c2)C(=O)C1C (stereo not drawn) [Compound 11] | >6.43 |  |  | 
CCC1=NN(c2cc(Cl)cc(Cl)c2)C(=O)C1=Cc1cccc(C(=O)NCCO)c1 [Compound 70] | 5.40 (≈ 12.5 µM) |  |  | 
CCC1=NN(c2cc(Cl)cc(Cl)c2)C(=O)C1=CC(=O)O [Compound 57] | 6.25 (≈ 20 µM) | 0 | 0 | 

Structure (SMILES) | MIC [1, 3] [µg/mL] | In Vivo, double dose (% of mice rescued) ([2]; 2 × 2 mg/kg s.c.) [% @ 2 × 2 mg/kg] | In Vivo, double dose (% of mice rescued) ([2]; 2 × 20 mg/kg s.c.) [% @ 2 × 20 mg/kg] | MIC [1, 4] [µg/mL]
O=C1CC(Cc2ccccc2)=NN1c1cc(Cl)cc(Cl)c1 [Compound 65] | 0.958 (≈ 3 µM) | 0 | 0 | 
O=C1C(=Cc2cccs2)C(c2ccccc2)=NN1c1cc(Cl)cc(Cl)c1 [Compound 36] | 12.5 (≈ 31.3 µM) |  |  | 
O=C1C(=Cc2ccoc2)C(c2ccccc2)=NN1c1cc(Cl)cc(Cl)c1 [Compound 34] | 2.40 (≈ 6.26 µM) | 25 | 25 | 
O=C(C=C1C(=O)N(c2cc(Cl)cc(Cl)c2)N=C1c1ccccc1)c1ccccc1 [Compound 26] | >12.5 |  |  | 
CSc1ccc(C=C2C(=O)N(c3cc(Cl)cc(Cl)c3)N=C2c2ccccc2)cc1 [Compound 38] | 6.25 (≈ 14.2 µM) |  |  | 
O=C(O)c1ccccc1C=C1C(=O)N(c2cc(Cl)cc(Cl)c2)N=C1c1ccccc1 [Compound 24] | 1.35 (≈ 3.09 µM) | 0 | 0 | 
CCC1=NN(c2cc(Cl)cc(Cl)c2)C(=O)C1=Cc1cccnc1 [Compound 54] | 0.750 (≈ 2.17 µM) | 0 | 12.5 | 
CCC1=NN(c2cc(Cl)cc(Cl)c2)C(=O)C1=Cc1cccc(C(=O)N2CCOCC2)c1 [Compound 69] | 11.5 (≈ 25.1 µM) |  |  | 
O=C1C(=Cc2ccsc2)C(c2ccccc2)=NN1c1cc(Cl)cc(Cl)c1 [Compound 33] | 5.00 (≈ 12.5 µM) | 25 | 0 | 
O=C(NCc1cccc(Cl)c1)Nc1nc(-c2ccc(Cl)c(Cl)c2)cs1 [Compound 179] | 5.16 (≈ 12.5 µM) |  |  | 
CN(C)C=C1C(=O)N(c2cc(Cl)cc(Cl)c2)N=C1c1ccccc1 [Compound 9, 2-(3,5-Dichloro-phenyl)-4-dimethylaminomethylene-5-phenyl-2,4-dihydro-pyrazol-3-one] |  |  |  | > 9.01
O=C1C2CCCCC2=NN1c1cc(Cl)cc(Cl)c1 (stereo not drawn) [Compound 18] | >7.08 |  |  | 
CCOC(=O)C1=NN(c2cc(Cl)cc(Cl)c2)C(=O)C1=Cc1ccc(C(=O)O)cc1 [Compound 63] | 12.5 (≈ 28.9 µM) |  |  | 
Cn1cccc1C=C1C(=O)N(c2cc(Cl)cc(Cl)c2)N=C1c1ccccc1 [Compound 32] | 0.320 (≈ 0.808 µM) |  |  | 
CCOC(=O)C1=NN(c2cc(Cl)cc(Cl)c2)C(=O)C1 [Compound 67] | 3.76 (≈ 12.5 µM) |  |  | 
Cc1ccc(C2=NN(c3cc(Cl)cc(Cl)c3)C(=O)C2)cc1 [Compound 6] | >7.98 |  |  | 
O=C1CC(c2ccccc2)=NN1c1cc(C(F)(F)F)cc(C(F)(F)F)c1 [Compound 47] | 2.33 (≈ 6.26 µM) |  |  | 
O=C1CC(C2CCCCC2)=NN1c1cc(Cl)cc(Cl)c1 [Compound 8] | >7.78 |  |  | 
O=C(NCc1ccc(Cl)c(Cl)c1)Nc1nc(-c2ccc(Br)cc2)cs1 [Compound 181] | 11.4 (≈ 24.9 µM) |  |  | 
CCC1=NN(c2cc(Cl)cc(Cl)c2)C(=O)C1=Cc1cccc(C(=O)N2CCN(C)CC2)c1 [Compound 68] | 11.8 (≈ 25 µM) |  |  | 

Structure (SMILES) | MIC [1, 3] [µg/mL] | In Vivo, double dose (% of mice rescued) ([2]; 2 × 2 mg/kg s.c.) [% @ 2 × 2 mg/kg] | In Vivo, double dose (% of mice rescued) ([2]; 2 × 20 mg/kg s.c.) [% @ 2 × 20 mg/kg] | MIC [1, 4] [µg/mL]
CC(C)C1=NN(c2cc(Cl)cc(Cl)c2)C(=O)C1 [Compound 13] | >6.78 |  |  | 
O=C1CC(c2cccnc2)=NN1c1cc(Cl)cc(Cl)c1 [Compound 53] | 7.65 (≈ 25 µM) |  |  | 
O=C(NCc1cccc(Cl)c1)Nc1nc(-c2cccc(F)c2)cs1 [Compound 174] | 9.05 (≈ 25 µM) |  |  | 
O=C1C(=Cc2ccco2)C(c2ccccc2)=NN1c1cc(Cl)cc(Cl)c1 [Compound 35] | >12.5 |  |  | 
O=C(NCc1cccc(Cl)c1)Nc1nc(-c2ccc(Cl)cc2Cl)cs1 [Compound 177] | 5.16 (≈ 12.5 µM) |  |  | 
CCC1=NN(c2cc(Cl)cc(Cl)c2)C(=O)C1=CCCC(=O)O [Compound 61] | 8.53 (≈ 25 µM) |  |  | 
CCC1C(=O)N(c2cc(Cl)cc(Cl)c2)N=C1C (stereo not drawn) [Compound 20] | >6.78 |  |  | 
CCN(CC)c1ccc(C=C2C(=O)N(c3cc(Cl)cc(Cl)c3)N=C2c2ccccc2)cc1 [Compound 27] | >12.5 |  |  | 
O=C1C(=Cc2c[nH]c3ccccc23)C(c2ccccc2)=NN1c1cc(Cl)cc(Cl)c1 [Compound 39] | >10.0 |  |  | 
O=C(NCc1cccc(Cl)c1)Nc1nc(-c2ccc(F)cc2F)cs1 [Compound 178] | 9.50 (≈ 25 µM) |  |  | 
Cc1cc(-c2csc(NC(=O)NCc3cccc(Cl)c3)n2)ccc1F [Compound 180] | 9.40 (≈ 25 µM) |  |  | 
O=C1CC(c2ccccc2F)=NN1c1cc(Cl)cc(Cl)c1 [Compound 7] | >8.08 |  |  | 
O=C1C(=Cc2nccs2)C(c2ccccc2)=NN1c1cc(Cl)cc(Cl)c1 [Compound 37] | 12.5 (≈ 31.2 µM) |  |  | 
CC1=NN(c2cc(Cl)cc(Cl)c2)C(=O)C1 [Compound 5] | 6.08 (≈ 25 µM) |  |  | 
CCOC(=O)C1=NN(c2cc(Cl)cc(Cl)c2)C(=O)C1=CC(=O)O [Compound 64] | 6.25 (≈ 17.5 µM) |  |  | 
CCC1=NN(c2cc(Cl)cc(Cl)c2)C(=O)C1=NO [Compound 60] | 7.15 (≈ 25 µM) |  |  | 
COC(=O)c1ccccc1C=C1C(=O)N(c2cc(Cl)cc(Cl)c2)N=C1c1ccccc1 [Compound 44] | 12.5 (≈ 27.7 µM) |  |  | 
O=C1C(=Cc2ccccn2)C(c2ccccc2)=NN1c1cc(Cl)cc(Cl)c1 [Compound 29] | 12.5 (≈ 31.7 µM) |  |  | 
